As usually defined, the melting point is the temperature, or range, at which the solid turns liquid.

In a melting point compilation (Tetko et al.; mined from patent text by program, amines drawn as free bases though some values may be those of a salt) one finds melting point data, which are given here for 86 compounds.

As to `CCOC(=O)C1=CC2(CCC1S(=O)(=O)Nc1ccc(F)cc1Cl)CC2` (stereo unspecified), the melting point lay within 125 to 126 °C. Compound `COc1ccc(CCNC(=O)COCCC(=O)NCCc2ccccc2)cc1OC` showed a melting point of 108 to 110 °C. For `N#Cc1c(Cl)c[nH]c1-c1ccc(Cl)cc1`, the melting point lay within 251 to 254 °C. As for `BrCc1ccc(-c2nnn(C(c3ccccc3)(c3ccccc3)c3ccccc3)n2)cc1`, the figure is 165 to 172 °C; as for `Cc1[nH]c(=O)[nH]c1C(=O)c1ccco1`, 214 to 216 °C; as for `COc1ccc(CN(C)CCCOc2ccc(NC(=O)c3cccc4c(=O)c5ccccc5[nH]c34)c(C)c2)cc1OC`, 145 to 150 °C.

For `CC(=O)OC1CC2(C)C(=O)CCC2C2C(CCCCCCCCCCl)CC3=CC(=O)CCC3C12` (stereo unspecified), the melting point lay within 113 to 115 °C. For `N#Cc1cnc2cc(/C=C/CCCCN3CCOCC3)ccc2c1Nc1ccc(Cl)cc1Cl`, the melting point fell in the range of 139 to 140 °C. As for `NC1=C(N=O)C(=O)N2CCN=C2N1Cc1ccc(Cl)cc1`, the figure is 238 to 241 °C; as for `COc1cc2c(cc1OC)[C@@H](O)[C@H](CN1CCC3(CC1)C(=O)NCN3c1ccccc1)C2` (relative stereo), 189 to 190 °C; as for `CCOC(=O)c1nc2scc(C(=O)O)c2c(=O)[nH]1`, 258 °C. The figure for `CCCc1c(O)ccc2c(=O)cc(-c3ccc(C(=O)OCC)cc3)oc12` is 225 to 226 °C. The figure for `O=C(O)c1cc(=O)c2cc3[nH]c(=O)oc3cc2[nH]1` is more than 300 °C.

With `CCNC(=O)C(c1ccccc1)c1ccccc1`, the melting point was determined as 87 °C. Take `Cc1ccccc1C(=O)Nc1ccc(-n2nc(C3CC3)cc2C2CC2)cc1`: the melting point lay within 128 to 130 °C. As for `O=c1nc(Nc2ccc(I)cc2)sc2ncccc12`, the figure is 263 to 264 °C. With `CC(=O)Nc1cccc(-c2nn3cnnc3cc2C)c1`, the melting point lay within 298 to 301 °C. The figure for `COc1cc(NC(=O)NC2CC(O)CC2N2CCC(Cc3ccc(Cl)cc3)CC2)cc(OC)c1OC` (stereo unspecified) is 81 to 84 °C.

The compound `N#Cc1ccc(NCc2cc3c(cc2O)CCO3)s1` came in with a melting point of 158 to 160 °C. The figure for `CC[C@H](N)C(=O)N1c2ccccc2C[C@H]1C(=O)NC` is 138 to 139 °C. The figure for `CCOC(=O)C1=C(C)NC(C)=C(C(=O)OC)C1c1cc([N+](=O)[O-])ccc1Cl` (stereo unspecified) is 163 to 164 °C. The figure for `Nc1nc2cccnc2c2c1nc(O)n2Cc1ccccc1` is more than 250 °C; for `O=C1OC2(CCC2)C(O)=C1c1ccccc1` it is 188 to 189 °C. In the case of `O=C(CS(=O)Cc1ccco1)C12CC3CC(CC(C3)C1)C2` (stereo unspecified), the melting point was in the range of 75 to 79 °C.

In the case of `COC(=O)C1=C(C)NC2=C(C(=O)OC2C)C1c1ccccc1Cl` (stereo unspecified), the melting point was in the range of 228 to 233 °C. As for `COC(=O)c1sc2c(C(F)(F)F)cccc2c1C1CCN(C(C)=O)CC1`, the figure is 155 °C.

Compound `COc1cc(COc2nn(-c3ccccc3)cc2C(N)=O)ccc1OCc1nc(-c2ccccc2)oc1C` came in with a melting point of 190 to 191 °C. With `O=c1c(Cl)c(Cl)cnn1-c1cc(C(F)(F)F)cc(C(F)(F)F)c1`, the melting point fell in the range of 255 to 262 °C. The figure for `COc1cc(Nc2nccc(-c3ccc(NCC(C)(C)CN(C)C)nc3)n2)cc(OC)c1OC` is 125 °C. The figure for `O=S(=O)(Nc1ccc2c(OCc3ccc(-c4ccccc4)cc3F)cccc2c1)C(F)(F)F` is 123 to 125 °C. `CC1=CN2CCS(=O)(=O)N=C2C(c2ccc(Oc3ccccc3)cc2)=N1` yielded a melting point of 92 to 92.5 °C. The figure for `CC(C)c1nc2cc(N)ccn2n1` is 174 to 176 °C. The figure for `O=C1CCC(c2ccc(NC(=O)CCN3CCC(c4ccccc4)CC3)cc2)=NN1` is 238 to 240 °C; for `COc1ccnc(CCc2nc3cc(-c4ccc(S(=O)(=O)Nc5ccc(C)cc5)cc4)cnc3[nH]2)c1` it is 219 to 220 °C; for `CN(C)C=C(C#N)C(=O)c1c[nH]c2ccccc12` it is 187 to 188 °C. For the compound `O=S(=O)(c1ccccc1)c1ccc2c(c1)OCCN2CCN1C=CNC1`, the melting point lay within 61.5 to 64.4 °C. As for `Cc1cc(O)n2nc(S(=O)(=O)Nc3c(Cl)ccc(C)c3Cl)nc2n1`, the figure is 346 to 347 °C; as for `CCOC(=O)Cc1c(C(=O)OCC)[nH]c(C)c1-c1nc(-c2ccc(OC)cc2)c(-c2ccc(OC)cc2)[nH]1`, 186 °C; as for `CN(C)CC1CN(c2c(F)cc3c(=O)c(C(=O)O)cn(C4CC4)c3c2F)CCO1` (stereo unspecified), 182 to 183 °C. As for `O=C1c2ccccc2C(O)(c2ccccc2)N1CCCN1CC=C(c2ccccc2)CC1` (stereo unspecified), the figure is 123 °C; as for `NCCCCCC(=O)NC(CCCCN)C(=O)N(NC(=O)OCc1ccccc1)C(=O)OCc1ccccc1` (stereo unspecified), 167 to 168 °C; as for `CC(C)(C)[Si](C)(C)C(F)(F)F`, 52 to 54 °C. Consider `CCNS(=O)(=O)c1cccc(NC(=O)c2cnn3c(C(F)(F)F)cc(-c4ccc(C(F)(F)F)cc4)nc23)c1`, for which the melting point was determined as 207 °C.

Consider `COc1cc(N)cc2c1nc(C(F)F)n2-c1nc(N2CCOCC2)nc(N2CCN(S(C)(=O)=O)CC2)n1`, for which the melting point is 280 to 283 °C.

On to `COc1nc(NCCCN2CCOCC2)nc(OC)c1NC(=O)c1csc(Oc2cccc(C(C)(C)C)c2)n1`, for which the melting point is 68 °C.

For the compound `c1ccc(Oc2cccc(CSc3nc4cnccc4[nH]3)c2)cc1`, the melting point was in the range of 156 to 158 °C. On to `COc1ccc(Nc2nc(Cl)nc(NC3CC3)n2)cc1F`, for which the melting point amounted to 186 °C. The figure for `COC(=O)Cc1ccccc1CSc1nc2cc(C(F)(F)F)ccc2s1` is 97 to 99 °C; for `Cc1ccc(C=C2NC(=O)N(c3cc(F)ccc3F)C2=O)cc1` it is 218 to 224 °C; for `C=CCOc1cc(CC(C#N)=CNc2ccccc2)cc(OCC=C)c1NC(C)=O` it is 176 to 178 °C.

`O=C(c1cc(N2CCC(N3CCCC3)CC2)ccn1)N(O)Cc1ccccc1` came in with a melting point of 135 to 140 °C. As for `NC(=O)Cc1ccc(-c2ccc(C(CC3CCOCC3)c3ccc(S(=O)(=O)C4CC4)cc3)[nH]2)nc1` (stereo unspecified), the figure is 151 to 153 °C.

Compound `CCC(=O)NCCc1cnn2ccc3occc3c12` displayed a melting point of 104 to 106 °C.

In turn, `COc1ccc(COc2ccc([N+](=O)[O-])cc2)cc1` yielded a melting point of 122 to 124 °C. The figure for `COC(=O)c1cc(-c2ccccc2)cc2c1C(C)(C)CCC2(C)C` is 118 °C; for `O=C(NN=C1C=CC=NC1)c1cccnc1` it is 213 to 216 °C; for `c1ccc2cc3[nH]c(SCc4nccs4)nc3cc2c1` it is 153 to 157 °C. Compound `CCc1sc2c(c1S(=O)(=O)c1ccc(O)cc1)CN(Cc1ccccc1Cl)CC2` displayed a melting point of 176 °C.

Consider `C=CCOC(=O)c1c(C)c(OC)cc(O[Si](C)(C)C(C)(C)C(C)C)c1C=O`, for which the melting point is 81 to 82 °C. The figure for `CCNc1nnc2ccc(-c3cccc(N(C)C(=O)CC)c3)nn12` is 198 to 199 °C; for `CCOC(=O)C1C=Nc2c(ccc3cc(C(=O)N(C)Cc4ccc(F)cc4)cnc23)C1=O` (stereo unspecified) it is 206 to 207 °C. `CS(=O)(=O)c1ccc(C(O)C(CF)NC(=O)C(F)F)cc1` (stereo unspecified) registered a melting point of 141 to 142 °C. As for `N#CC(C(=O)Nc1cccc(Br)c1)C(=O)c1nn(-c2ccccc2)c2c1Cc1ccccc1-2` (stereo unspecified), the figure is 289 to 290 °C; as for `CCOC(=O)CCc1cn(-c2ccccc2)nc1O`, 116 to 118 °C.

On to `CCOP(=O)(OCC)C(Nc1cnccn1)P(=O)(OCC)OCC`, for which the melting point fell in the range of 56 to 59 °C. The figure for `CCN1c2ncccc2C(=O)Nc2c(C)cc(N3CCC[C@H]3CO)nc21` is 238 to 240 °C; for `CCN(C(=O)c1ccccc1)C(=NC(=O)c1ccccc1)NCc1ccc(S(N)(=O)=O)cc1` it is 70 to 80 °C. As for `Cc1ccc2c(=O)nc(-c3cccc(CCC(=O)O)n3)sc2c1`, the figure is 222 °C.

Compound `Cc1ccc(-c2nc(Cl)cc(Cl)n2)cc1` showed a melting point of 84 to 85 °C. `CCn1c(C)c(C2(c3c(-c4ccccc4)c(-c4ccccc4)c4ccccn34)OC(=O)c3cccnc32)c2ccccc21` (stereo unspecified) showed a melting point of 206 to 208 °C. As for `COc1ccc(S(=O)(=O)Nc2c(C)cc(C#N)cc2C(=O)O)cc1`, the figure is 175 °C; as for `CCc1ccc(-c2ccc(CCc3ccc(C)cc3)cc2)c(F)c1`, 65 °C. The figure for `CCN(c1ccc(SC)cc1[N+](=O)[O-])S(=O)(=O)c1ccc(C)cc1` is 135 to 136 °C; for `CC(C)(C)c1cc(-c2c[nH]c(S(C)(=O)=O)n2)cc(C(C)(C)C)c1O` it is 119 to 120 °C. As for `O=C(Cn1cc(-c2ccccc2)cc(NC(=O)OCc2ccccc2)c1=O)NC(Cc1ccccc1)C(=O)C(F)(F)F` (stereo unspecified), the figure is 147 to 151 °C; as for `Cc1cc(C(N)=O)ncc1C(c1c(F)ccc(F)c1F)S(=O)(=O)CCC(C)(C)C` (stereo unspecified), 143 to 144 °C. Compound `COc1ccc(NC2SC(=O)NC2=O)cc1` (stereo unspecified) had a melting point of 180 to 181 °C. For `C1=C(c2nc(-c3ccccc3)no2)CCN(Cc2c[nH]c3ncccc23)C1`, the melting point was in the range of 207 to 209 °C. The figure for `CC(C)(C)C(=O)CC(Sc1ccccc1)c1ccc(Cl)cc1` (stereo unspecified) is 127 to 128 °C; for `CN(C)CC1CN(c2ccccc2)NC1=O` (stereo unspecified) it is 118 to 119 °C. The figure for `NC1=NN(c2cccc(C(F)(F)F)c2)CC1` is 104 to 107 °C.

Regarding `N#Cc1cc(Oc2ccc(Cl)cc2)ccc1N`, the melting point is 116 to 118 °C. The figure for `O=[N+]([O-])c1cc(C(F)(F)F)c(Cl)c([N+](=O)[O-])c1Nc1ncc(Cl)cc1Cl` is 64 to 65 °C; for `CC(C)c1cc(Oc2ccc(Cl)cc2C(=O)O)cc(C(C)C)c1` it is 129 to 130 °C; for `Cc1ccc2c(c1)C(=O)c1ccc(C(N)=O)cc1S2(=O)=O` it is 305 °C. `CC(C)(C)c1ccc(N)cn1` displayed a melting point of 61.5 to 62.7 °C.
